# Peptide text beside a SMILES is read from it. * marks the point of attachment. Stearoyl = CCCCCCCCCCCCCCCCCC(=O)*; Palmitoyl = CCCCCCCCCCCCCCCC(=O)*; Myristoyl = CCCCCCCCCCCCCC(=O)*; Lauroyl = CCCCCCCCCCCC(=O)*; Decanoyl = CCCCCCCCCC(=O)*; Octanoyl = CCCCCCCC(=O)*
# Legend:
# [1] = tested on: Acinetobacter bohemicus (DSM 100419); experiment: Minimal inhibitory concentration (MIC), broth microdilution; type: cell-based; design: key to MIC value: MIC in μg/mL (lowest concentration without visible growth); details: 30 ± 1 °C; for MIC value: Table S2, n=3, no unit given (main text uses µg/mL); for MIC: broth microdilution, cation-adjusted MHB II, 5 × 10^5 cfu/mL, read after 18 to 20 h, n = 3
# Method: (§1) Minimal inhibitory concentrations (MICs) were determined against Gram-positive Enterococcus faecium vanA (UL 602570*, clinical isolate from Institute for Medical Microbiology and Hygiene, Heidelberg University Hospital, Heidelberg, Germany), Staphylococcus aureus (ATCC 25923), Rothia kristinae (DSM 20032), and Gram-negative Acinetobacter bohemicus (DSM 100419) (all obtained from the Department of Infectious Diseases, Medical Microbiology and Hygiene, Heidelberg University, Heidelberg, Germany) in a 96-well polypropylene plate (650261 Greiner Bio-One GmbH, Frickenhausen, Germany) according to European Committee on Antimicrobial Susceptibility Testing (EUCAST) and The Clinical & Laboratory Standards Institute (CLSI) guidelines. Briefly, the stock solutions of the peptide conjugates in water were adjusted to a concentration of 1.28 mg/mL. Starting with the highest concentration of 64 μg/mL in 96-well polypropylene plates, dilution series in cation-adjusted Mueller–Hinton broth (MHB II; Sigma Aldrich, Steinheim, Germany) were performed, resulting in the lowest concentration of 0.125 μg/mL. A logarithmic growing bacterial culture was adjusted to a McFarland corresponding to 1 × 10^8 cfu/mL using a McFarland counter (DensiCHEK® plus, bioMerieux, Marcy-l’Étoile, France). Finally, a bacterial suspension of 1 × 10^6 cfu/mL (further diluted in MHB II) was added to each peptide-conjugate concentration. Thus, the final bacterial concentration in each well was 5 × 10^5 cfu/mL. The bacteria were incubated at 37 ± 1 °C (for A. bohemicus: 30 ± 1 °C) overnight and the bacterial growth was analyzed after 18 to 20 h. The MIC was defined as the lowest concentration of substance without any visible growth. Vancomycin and colistin sulfate were purchased from Sigma-Aldrich Chemie GmbH, München, Germany and Carl Roth GmbH, Karlsruhe, Germany.
# [2] = tested on: Acinetobacter bohemicus (DSM 100419); experiment: Minimal bactericidal concentration (MBC); type: cell-based; details: Table S2, n=3; unit inferred; lowest concentration killing 99.9% of the inoculum; agar 24 h, 30 ± 1 °C
# Method: (§2) Minimal bactericidal concentrations (MBCs) were determined by pipetting 3 µL of each broth dilution solution without visible growth onto a new agar plate. The agar plates were incubated at 37 ± 1 °C (for A. bohemicus: 30 ± 1 °C) for 24 h and were again analyzed with respect to bacterial growth. MBC is defined as the lowest concentration killing 99.9% of the inoculum.
# [3] = rat, in vivo, iv
# Method: For this purpose, the tyrosine residues of the peptides were radiolabeled with ^125I (Hartmann Analytic GmbH, Braunschweig, Germany) using the chloramine-T method [28]. Free ^125I was separated by preparative HPLC as previously described by Schieck et al. [22]. Approximately 2 to 4 MBq of the radiolabeled peptides was injected intravenously into the tail vein and images were recorded immediately post injection and after 1 h, 2 h, 3 h, 5 h, and 24 h. Scintigraphical images were obtained by using a γ-camera (Gamma Imager, Biospace Lab, Paris, France).
# [4] = tested on: Enterococcus faecium (UL602570*, clinical isolate, vanA-resistant); experiment: Minimal inhibitory concentration (MIC), broth microdilution; type: cell-based; details: cation-adjusted MHB II, 5 × 10^5 cfu/mL, 37 ± 1 °C, read after 18 to 20 h, n = 3
# Method: as §1
# [5] = tested on: Staphylococcus aureus (ATCC 25923); experiment: as above; type: cell-based; details: cation-adjusted MHB II, 5 × 10^5 cfu/mL, 37 ± 1 °C, read after 18 to 20 h, n = 3
# Method: as §1
# [6] = type: physicochemical
# Excerpt: The high MIC value of Pep19-short indicates the importance of a hydrophobic moiety for this synthetic antimicrobial peptide. […] If the length of the fatty acid is too short, the interaction between the peptide conjugate and components of the bacterial cell membrane might be unfavorable, thus leading to loss of efficiency. Fatty acids of medium chain length enable a stable plateau of low MIC values, indicating a more efficient interaction between the peptide conjugate and bacterial cells. […] A detailed interaction between Pep19 peptides and membrane-bound toxins was previously described by Correa et al.. […] A hypothesized mechanism for this interaction represents the reorganization of the bacterial membrane leading in an inability to maintain the osmotic pressure. Here, the positively-charged amino acids of the peptide conjugate might interact with the negatively-charged compounds of the bacterial cell wall and the hydrophobic part interacts with hydrophobic lipids of the bacterial membrane. Several mechanisms for a membrane disruption by amphiphilic peptides were further described by Sato and Feix. With respect to the parent peptide Pep19-4LF, the hydrophobic moiety was located at the C-terminus. As the synthesis leads to peptides that are linked to the resin via their C-terminus, the fatty acids were linked to the free N-terminus of the peptide. […]
# [7] = tested on: Rothia kristinae (DSM 20032); experiment: Minimal bactericidal concentration (MBC); type: cell-based; details: Table 3 of supplement, n=3; unit inferred; lowest concentration killing 99.9% of the inoculum; agar 24 h, 37 ± 1 °C
# Method: as §2
# [8] = tested on: Rothia kristinae (DSM 20032); experiment: Minimal inhibitory concentration (MIC), broth microdilution; type: cell-based; details: Table 3 of supplement, n=3; unit inferred; 37 ± 1 °C
# Method: as §1
# [9] = tested on: Rothia kristinae (DSM 20032); experiment: Time-kill studies; type: cell-based; details: for change in number of cfu/mL: 0.5 × MIC, 0 to 8 h
# Method: Time–kill studies were performed in accordance with CLSI guidelines. Therefore, Rothia kristinae DSM 20032 was adjusted to a concentration of 1 x 10^8 cfu/mL and further diluted to 1 × 10^6 cfu/mL in cation-adjusted MHB II. According to the previous determined MIC values of Pep19-4LF, C11-Pep19-4LF, and bacitracin (positive control) (Sigma Aldrich Chemie GmbH, München, Germany), samples were taken for 4 × MIC, 2 × MIC, 1 × MIC, and 0.5 × MIC after 30 min, 1 h, 2 h, 4 h, and 8 h. These samples were diluted in sterile saline and 10 µL of each sample was loaded onto agar plates. A bacterial suspension of 1 × 10^6 cfu/mL served as a growth control. Incubation occurred at 37 ± 1 °C and all counted colonies were recalculated to the colony number in the original inoculum.
# [10] = 4 × MIC, 1 × 10^6 cfu/mL in MHB II, 37 °C, n = 3
Compound,MIC value [1],MBC value [2] [µg/mL],MIC [1],MIC [5],also measured
"N=C(N)NCCC[C@H](NC(=O)[C@H](Cc1ccc(O)cc1)NC(=O)[C@H](CCCCN)NC(=O)[C@H](CCCCN)NC(=O)[C@H](CS)NC(=O)CN)C(=O)N[C@@H](CCCNC(=N)N)C(=O)N[C@@H](Cc1ccccc1)C(=O)N[C@@H](CCCNC(=N)N)C(=O)N[C@@H](Cc1c[nH]c2ccccc12)C(=O)N[C@@H](CCCCN)C(=O)N[C@@H](Cc1ccccc1)C(=O)N[C@@H](CCCCN)C(=O)NCC(=O)N[C@@H](CCCCN)C(=O)N[C@@H](Cc1ccccc1)C(=O)N[C@@H](Cc1c[nH]c2ccccc12)C(=O)N[C@@H](Cc1ccccc1)C(=O)N[C@@H](Cc1c[nH]c2ccccc12)C(=O)NCC(N)=O [Pep19-2.5, reference compound]",> 64,> 64,–,–,–
"GKKYRRFRWKFKGK-NH2 [Pep19-short, shortened variant of Pep19-4LF without hydrophobic moiety, …-NH2]",64,64,64 µg/mL,> 64 µg/mL,speed of elimination compared among the peptides [3]: no difference in the elimination time; MIC [4]: > 64 µg/mL
"C11-GKKYRRFRWKFKGK [C11-Pep19-short, Pep19-short conjugated at the N-terminus to undecanoic acid (C11:0)]",4,4,–,–,"solubility in water [6]: high solubility in water; MBC value [7]: 4 µg/mL; speed of elimination compared among the peptides [3]: faster excretion from the body; MIC value [8]: 4 µg/mL; change in number of cfu/mL ([9]; n = 3): only a small decrease in the number of cfu/mL; time until all bacteria killed ([9]; 1 × MIC, n=3): 4 h; time until all bacteria killed ([9]; 2 × MIC, n=3): 0.5 h; time until all bacteria killed / no detectable cfu [9, 10]: ≤ 30 min; mode of action ([9]; 4 × MIC, n = 3): fast and bactericidal mode of action"
CCCCCCCCCCCCCCCC(=O)NCC(=O)N[C@@H](CCCCN)C(=O)N[C@@H](CCCCN)C(=O)N[C@@H](Cc1ccc(O)cc1)C(=O)N[C@@H](CCCNC(=N)N)C(=O)N[C@@H](CCCNC(=N)N)C(=O)N[C@@H](Cc1ccccc1)C(=O)N[C@@H](CCCNC(=N)N)C(=O)N[C@@H](Cc1c[nH]c2ccccc12)C(=O)N[C@@H](CCCCN)C(=O)N[C@@H](Cc1ccccc1)C(=O)N[C@@H](CCCCN)C(=O)NCC(=O)N[C@@H](CCCCN)C(N)=O [C16-Pep19-short] (Palmitoyl-GKKYRRFRWKFKGK-NH2),> 64,> 64,higher MIC values,higher MIC values,–
bacitracin,–,–,–,–,"change in number of cfu/mL ([9]; n = 3): only a small decrease in the number of cfu/mL; mode of action ([9]; 2 × MIC, n=3): bacteriostatic mode of action; time until no detectable cfu [9, 10]: 8 h; mode of action ([9]; 4 × MIC, n = 3): bactericidal activity"
CCCCCCCCCCCCCCCCCC(=O)NCC(=O)N[C@@H](CCCCN)C(=O)N[C@@H](CCCCN)C(=O)N[C@@H](Cc1ccc(O)cc1)C(=O)N[C@@H](CCCNC(=N)N)C(=O)N[C@@H](CCCNC(=N)N)C(=O)N[C@@H](Cc1ccccc1)C(=O)N[C@@H](CCCNC(=N)N)C(=O)N[C@@H](Cc1c[nH]c2ccccc12)C(=O)N[C@@H](CCCCN)C(=O)N[C@@H](Cc1ccccc1)C(=O)N[C@@H](CCCCN)C(=O)NCC(=O)N[C@@H](CCCCN)C(N)=O [C18-Pep19-short] (Stearoyl-GKKYRRFRWKFKGK-NH2),> 64,> 64,higher MIC values,higher MIC values,MBC value [7]: > 64 µg/mL; MIC value [8]: > 64 µg/mL
CCCCCCCCCCCCCC(=O)NCC(=O)N[C@@H](CCCCN)C(=O)N[C@@H](CCCCN)C(=O)N[C@@H](Cc1ccc(O)cc1)C(=O)N[C@@H](CCCNC(=N)N)C(=O)N[C@@H](CCCNC(=N)N)C(=O)N[C@@H](Cc1ccccc1)C(=O)N[C@@H](CCCNC(=N)N)C(=O)N[C@@H](Cc1c[nH]c2ccccc12)C(=O)N[C@@H](CCCCN)C(=O)N[C@@H](Cc1ccccc1)C(=O)N[C@@H](CCCCN)C(=O)NCC(=O)N[C@@H](CCCCN)C(N)=O [C14-Pep19-short] (Myristoyl-GKKYRRFRWKFKGK-NH2),8,8,–,–,–
CCCCCCCC(=O)NCC(=O)N[C@@H](CCCCN)C(=O)N[C@@H](CCCCN)C(=O)N[C@@H](Cc1ccc(O)cc1)C(=O)N[C@@H](CCCNC(=N)N)C(=O)N[C@@H](CCCNC(=N)N)C(=O)N[C@@H](Cc1ccccc1)C(=O)N[C@@H](CCCNC(=N)N)C(=O)N[C@@H](Cc1c[nH]c2ccccc12)C(=O)N[C@@H](CCCCN)C(=O)N[C@@H](Cc1ccccc1)C(=O)N[C@@H](CCCCN)C(=O)NCC(=O)N[C@@H](CCCCN)C(N)=O [C8-Pep19-short] (Octanoyl-GKKYRRFRWKFKGK-NH2),8,8,–,–,–
CCCCCCCCCC(=O)NCC(=O)N[C@@H](CCCCN)C(=O)N[C@@H](CCCCN)C(=O)N[C@@H](Cc1ccc(O)cc1)C(=O)N[C@@H](CCCNC(=N)N)C(=O)N[C@@H](CCCNC(=N)N)C(=O)N[C@@H](Cc1ccccc1)C(=O)N[C@@H](CCCNC(=N)N)C(=O)N[C@@H](Cc1c[nH]c2ccccc12)C(=O)N[C@@H](CCCCN)C(=O)N[C@@H](Cc1ccccc1)C(=O)N[C@@H](CCCCN)C(=O)NCC(=O)N[C@@H](CCCCN)C(N)=O [C10-Pep19-short] (Decanoyl-GKKYRRFRWKFKGK-NH2),4,4,–,–,–
CCCCCCCCCCCC(=O)NCC(=O)N[C@@H](CCCCN)C(=O)N[C@@H](CCCCN)C(=O)N[C@@H](Cc1ccc(O)cc1)C(=O)N[C@@H](CCCNC(=N)N)C(=O)N[C@@H](CCCNC(=N)N)C(=O)N[C@@H](Cc1ccccc1)C(=O)N[C@@H](CCCNC(=N)N)C(=O)N[C@@H](Cc1c[nH]c2ccccc12)C(=O)N[C@@H](CCCCN)C(=O)N[C@@H](Cc1ccccc1)C(=O)N[C@@H](CCCCN)C(=O)NCC(=O)N[C@@H](CCCCN)C(N)=O [C12-Pep19-short] (Lauroyl-GKKYRRFRWKFKGK-NH2),4,4,–,–,–

# From article PMC7760514, “Fatty Acid Conjugation Leads to Length-Dependent Antimicrobial Activity of a Synthetic Antibacterial Peptide (Pep19-4LF)” (Antibiotics, 2020)
